Assay results reported in paper PMC10266688 (PLOS ONE, 2023).
Values joined by “and” are separate entries in the source; they are usually repeats but may differ in a detail not shown here. Identical values can stand only once. Like-named read-outs stand apart in the source and are kept apart here.

How the values were obtained:
[1] = Single administration dose escalation study (MTD, body weight, clinical observations), female CD1 mice; assay type: in vivo; details: for Body weight change, Mean / Body weight change: day 7 vs initial weight; for Body weight change, Mean: group mean; for MTD at 7 days: mouse, in vivo, female CD1 mice
Procedure: Mice were dosed on day 1 and clinical condition recorded at 0.5 h, 2 h, 4 h, 6 h, and days 1–7 (S6 Table).
Gc - general condition observation
X - treatment with compound or vehicle

[2] = molecular target: T1, 42kDa cellular protein (RPN13) (Homo sapiens, UniProt Q16186); assay: Competition for RA190B binding in HeLa cell lysate; details: HeLa lysate pre-treated with compound (5 μM) 45 min 4°C, then RA190B (20 μM)
T1 construct: endogenous in cells; host or cells: HeLa cell lysate
T1 sequence (Q16186 2-407): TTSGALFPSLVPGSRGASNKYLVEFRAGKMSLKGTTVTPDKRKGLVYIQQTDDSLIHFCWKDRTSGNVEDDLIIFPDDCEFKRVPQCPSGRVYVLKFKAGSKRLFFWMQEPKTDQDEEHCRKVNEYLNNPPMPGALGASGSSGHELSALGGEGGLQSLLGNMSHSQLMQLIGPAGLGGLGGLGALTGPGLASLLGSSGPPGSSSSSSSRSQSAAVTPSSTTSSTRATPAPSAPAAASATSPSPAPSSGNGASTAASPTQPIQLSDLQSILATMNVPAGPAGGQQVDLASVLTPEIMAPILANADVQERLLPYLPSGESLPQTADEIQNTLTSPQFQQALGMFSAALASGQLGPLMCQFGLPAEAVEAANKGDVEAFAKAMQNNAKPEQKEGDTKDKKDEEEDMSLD
Procedure: NEM (1 mM) used as positive control.

Structure (SMILES): N#Cc1ccc(/C=C2/C(=O)/C(=C/c3ccc(C#N)cc3)C23CCNCC3)cc1 [Up284]
- Body weight, Mean ([1]; IV 60 mg/kg single dose, day 4, group mean): 24.93 g
- Body weight ([1]; IV 60 mg/kg single dose, day 4, individual mice, 60 mg/kg): 26.6 g and 23.5 g and 24.7 g
- Body weight, Mean ([1]; IV 60 mg/kg single dose, day 5, group mean): 24.83 g
- Body weight ([1]; IV 60 mg/kg single dose, day 5, individual mice, 60 mg/kg): 26.5 g and 23.3 g and 24.7 g
- Body weight, Mean ([1]; IV 60 mg/kg single dose, day 6, group mean): 25.30 g
- Body weight ([1]; IV 60 mg/kg single dose, day 6, individual mice, 60 mg/kg): 26.7 g and 24.1 g and 25.1 g
- Body weight, Mean ([1]; IV 60 mg/kg single dose, day 7, group mean): 25.27 g
- Body weight ([1]; IV 60 mg/kg single dose, day 7, individual mice, 60 mg/kg): 26.6 g and 23.9 g and 25.3 g
- Body weight change, Mean ([1]; IV 60 mg/kg single dose): 3.48%
- Body weight change ([1]; IV 60 mg/kg single dose, individual mice, 60 mg/kg): 2.31% and 5.29% and 2.85%
- Clinical observation ([1]; IV 60 mg/kg, day 0, 0.5 h, individual mice, 60 mg/kg): 0
- Clinical observation ([1]; IV 60 mg/kg, day 0, 2 h, individual mice): 0
- Clinical observation ([1]; IV 60 mg/kg, day 0, 4 h, individual mice): 0
- Clinical observation ([1]; IV 60 mg/kg, day 0, 6 h, individual mice): 0
- Clinical observation ([1]; IV 60 mg/kg, day 0, time 0, individual mice): 0
- Clinical observation ([1]; IV 60 mg/kg, day 1, individual mice): 0
- Clinical observation ([1]; IV 60 mg/kg, day 2, individual mice): 0
- Clinical observation ([1]; IV 60 mg/kg, day 3, individual mice): 0
- Clinical observation ([1]; IV 60 mg/kg, day 4, individual mice): 0
- Clinical observation ([1]; IV 60 mg/kg, day 5, individual mice): 0
- Clinical observation ([1]; IV 60 mg/kg, day 6, individual mice): 0
- Clinical observation ([1]; IV 60 mg/kg, day 7, individual mice): 0
- Body weight, Mean ([1]; PO 100 mg/kg single dose, day 0, group mean): 24.70 g
- Body weight ([1]; PO 100 mg/kg single dose, day 0, individual mice, 100 mg/kg): 27.5 g and 24.7 g and 21.9 g
- Body weight, Mean ([1]; PO 100 mg/kg single dose, day 1, group mean): 24.30 g
- Body weight ([1]; PO 100 mg/kg single dose, day 1, individual mice, 100 mg/kg): 26.4 g and 24.4 g and 22.1 g
- Body weight, Mean ([1]; PO 100 mg/kg single dose, day 2, group mean): 24.77 g
- Body weight ([1]; PO 100 mg/kg single dose, day 2, individual mice, 100 mg/kg): 27.0 g and 24.5 g and 22.8 g
- Body weight, Mean ([1]; PO 100 mg/kg single dose, day 3, group mean): 25.10 g
- Body weight ([1]; PO 100 mg/kg single dose, day 3, individual mice, 100 mg/kg): 27.2 g and 25.0 g and 23.1 g
- Body weight, Mean ([1]; PO 100 mg/kg single dose, day 4, group mean): 25.30 g
- Body weight ([1]; PO 100 mg/kg single dose, day 4, individual mice, 100 mg/kg): 27.9 g and 24.5 g and 23.5 g
- Body weight, Mean ([1]; PO 100 mg/kg single dose, day 5, group mean): 24.77 g
- Body weight ([1]; PO 100 mg/kg single dose, day 5, individual mice, 100 mg/kg): 26.9 g and 24.4 g and 23.0 g
- Body weight, Mean ([1]; PO 100 mg/kg single dose, day 6, group mean): 25.50 g
- Body weight ([1]; PO 100 mg/kg single dose, day 6, individual mice, 100 mg/kg): 28.4 g and 25.0 g and 23.1 g
- Body weight, Mean ([1]; PO 100 mg/kg single dose, day 7, group mean): 26.10 g
- Body weight ([1]; PO 100 mg/kg single dose, day 7, individual mice, 100 mg/kg): 29.3 g and 25.6 g and 23.4 g
- Body weight change, Mean ([1]; PO 100 mg/kg single dose): 5.68%
- Body weight change ([1]; PO 100 mg/kg single dose, individual mice, 100 mg/kg): 6.55% and 3.64%
- Clinical observation ([1]; PO 100 mg/kg, day 0, 0.5 h, individual mice): 0
- Clinical observation ([1]; PO 100 mg/kg, day 0, 2 h, individual mice): 0
- Clinical observation ([1]; PO 100 mg/kg, day 0, 4 h, individual mice): 0
- Clinical observation ([1]; PO 100 mg/kg, day 0, 6 h, individual mice): 0
- Clinical observation ([1]; PO 100 mg/kg, day 0, time 0, individual mice): 0
- Clinical observation ([1]; PO 100 mg/kg, day 1, individual mice): 0
- Clinical observation ([1]; PO 100 mg/kg, day 2, individual mice): 0
- Clinical observation ([1]; PO 100 mg/kg, day 3, individual mice): 0
- Clinical observation ([1]; PO 100 mg/kg, day 4, individual mice): 0
- Clinical observation ([1]; PO 100 mg/kg, day 5, individual mice): 0
- Clinical observation ([1]; PO 100 mg/kg, day 6, individual mice): 0
- Clinical observation ([1]; PO 100 mg/kg, day 7, individual mice): 0
- Body weight, Mean ([1]; PO 200 mg/kg single dose, day 0, group mean): 24.70 g
- Body weight, Mean ([1]; PO 200 mg/kg single dose, day 1, group mean): 24.90 g
- Body weight, Mean ([1]; PO 200 mg/kg single dose, day 2, group mean): 25.17 g
- Body weight, Mean ([1]; PO 200 mg/kg single dose, day 3, group mean): 25.07 g
- Body weight, Mean ([1]; PO 200 mg/kg single dose, day 4, group mean): 25.40 g
- Body weight, Mean ([1]; PO 200 mg/kg single dose, day 5, group mean): 25.33 g
- Body weight, Mean ([1]; PO 200 mg/kg single dose, day 6, group mean): 25.63 g
- Body weight, Mean ([1]; PO 200 mg/kg single dose, day 7, group mean): 25.87 g
- Body weight ([1]; PO 200 mg/kg single dose, day 7, individual mice, 200 mg/kg): 26.3 g
- Body weight change, Mean ([1]; PO 200 mg/kg single dose): 4.87%
- Body weight change ([1]; PO 200 mg/kg single dose, individual mice, 200 mg/kg): 8.68% and 0.00% and 5.93%
- Clinical observation ([1]; PO 200 mg/kg, day 0, 0.5 h, individual mice): 0
- Clinical observation ([1]; PO 200 mg/kg, day 0, 2 h, individual mice): 0
- Clinical observation ([1]; PO 200 mg/kg, day 0, 4 h, individual mice): 0
- Clinical observation ([1]; PO 200 mg/kg, day 0, 6 h, individual mice): 0
- Clinical observation ([1]; PO 200 mg/kg, day 0, time 0, individual mice): 0
- Clinical observation ([1]; PO 200 mg/kg, day 1, individual mice): 0
- Clinical observation ([1]; PO 200 mg/kg, day 2, individual mice): 0
- Clinical observation ([1]; PO 200 mg/kg, day 3, individual mice): 0
- Clinical observation ([1]; PO 200 mg/kg, day 4, individual mice): 0
- Clinical observation ([1]; PO 200 mg/kg, day 5, individual mice): 0
- Clinical observation ([1]; PO 200 mg/kg, day 6, individual mice): 0
- Clinical observation ([1]; PO 200 mg/kg, day 7, individual mice): 0
- MTD at 7 days ([1]; ip, read-out: MTD, single IP dose): 40 mg/kg
- MTD at 7 days ([1]; iv, read-out: MTD, single IV dose (not reached at maximum feasible dose)): ≥ 60 mg/kg
- MTD at 7 days ([1]; po, read-out: MTD, single PO dose (not reached at maximum feasible dose)): ≥ 200 mg/kg
- competition for RA190B binding to the 42KDa cellular protein [2]: competed
